Reference: ChEMBL document CHEMBL1159268, “The structures of new lanostane triterpenes from the fruiting bodies of Hebeloma senescens” (J Nat Prod, 1995)
In brackets after ≈: the same amount, converted by molar mass. Activity calls are given as the source filed them. No cut-off for these calls is given here.

Tests used:
Escherichia coli = experiment: Antibacterial activity against Escherichia coli; assay type: functional, organism-based
Candida albicans = experiment: […] activity against Candida albicans; assay type: functional, organism-based
[1] = Toxicity against Artemia salina; assay type: organism-based; settings: in vivo, read-out: LD50 (the source's name)

| Structure (SMILES) | Activity (Escherichia coli) | Activity (Candida albicans) | LC50 [1] [µg/mL] |
| --- | --- | --- | --- |
| CC(=O)O[C@H]1O[C@@H](C(C)(C)O)CC[C@@H]1[C@H]1CC[C@@]2(C)C3=C(CC[C@]12C)[C@@]1(C)C[C@@H](OC(=O)C[C@@](C)(O)CC(=O)O)[C@H](OC(C)=O)C(C)(C)[C@@H]1CC3 [HEBELOMIC ACID F] | inactive | inactive | 19.7 (≈ 27.4 µM) |
| CC(=O)O[C@H]1[C@H](OC(=O)C[C@@](C)(O)CC(=O)O)C[C@]2(C)C3=C(CC[C@H]2C1(C)C)[C@]1(C)CC[C@H]([C@H]2CC[C@H](C(C)(C)O)O[C@@H]2O)[C@@]1(C)[C@@H](O)C3 [HEBELOMIC ACID A] | inactive | inactive | 96.5 (≈ 139 µM) |
| CC(=O)O[C@H]1CC2=C(CC[C@H]3C(C)(C)[C@@H](OC(C)=O)[C@H](OC(=O)C[C@@](C)(O)CC(=O)O)C[C@]23C)[C@]2(C)CC[C@H]([C@H]3CC[C@H](C(C)(C)O)O[C@@H]3O)[C@@]12C [HEBELOMIC ACID B] | inactive | inactive | 386 (≈ 525 µM) |
